What all share (type): cell-based
Series [1] concerns MS-G2. The series can be described thus: Inhibition of Hepatitis B virus E antigen activity in human MS-G2 cells at 10 ug/mL.
In series [2] the test system is MS-G2. The series can be described thus: Inhibition of Hepatitis B virus E antigen activity in human MS-G2 cells at 5 ug/mL.
Series [3] can be described thus: Cytotoxicity against human MS-G2 cells at 20 ug/mL.

Structures are written as SMILES. The source made the active and inactive calls. The rule behind the calls is not given here.

Consider `COc1cc(O)c(Cc2ccc(O)cc2)c2c1-c1ccc(O)c(CC=C(C)C)c1CC2` [SINENSOL C], for which the result with MS-G2 [1] and in the series with MS-G2 [2] was inactive. The outcome in series [3] was Active.

For the compound `COc1cc(O)c2c(c1Cc1ccc(O)cc1)CCc1c-2cc(Cc2ccc(O)cc2)c(O)c1CC=C(C)C` [SINENSOL F], the outcome with MS-G2 [1] and in the series on MS-G2 [2] was inactive. For the same compound, the outcome in series [3] was Active.

In the case of `COc1cc(O)c2c(c1Cc1ccc(O)cc1)CCc1c-2ccc2c1C=CC(C)(C)O2` [SINENSOL D], the result in the series with MS-G2 [1] and in the series on MS-G2 [2] was inactive. Also, the result in series [3] was Active.

On to `COc1cc(OC)c2c(c1Cc1ccc(O)cc1)CCc1cc(O)ccc1-2` [SINENSOL A], for which the result with MS-G2 [1] and in the series with MS-G2 [2] was inactive. In addition, in series [3], the outcome was Active.

Consider `COc1cc(O)c2c(c1Cc1ccc(O)cc1)CCc1c-2ccc2c1CC(C(C)(C)O)O2` (stereo not drawn) [SINENSOL E], for which the outcome with MS-G2 [1] and in the series on MS-G2 [2] was inactive. Also, the outcome in series [3] was Active.

On to `COc1cc(OC)c2c(c1Cc1ccc(O)cc1)CCc1c-2ccc(O)c1CC=C(C)C` [SINENSOL B], for which the outcome in the series with MS-G2 [1] and with MS-G2 [2] was inactive. For the same compound, in series [3], the result was Active.

Source of the values: ChEMBL document CHEMBL1155636, “Dihydrophenanthrenes from Spiranthes sinensis” (J Nat Prod, 2000).
